In patent publication EP2881391A1, “Spiroindoline carbocycle derivatives and pharmaceutical compositions thereof” (Bayer Pharma Aktiengesellschaft, priority 2013, dated 2015):
pIC50: −log10 of the molar value.

Biological target: T1, human GnRH receptor (Homo sapiens, UniProt P30968)
T1 construct: line established by Prof; Thomas Gudermann; host or cells: CHO cells
T1 sequence (P30968 1-328): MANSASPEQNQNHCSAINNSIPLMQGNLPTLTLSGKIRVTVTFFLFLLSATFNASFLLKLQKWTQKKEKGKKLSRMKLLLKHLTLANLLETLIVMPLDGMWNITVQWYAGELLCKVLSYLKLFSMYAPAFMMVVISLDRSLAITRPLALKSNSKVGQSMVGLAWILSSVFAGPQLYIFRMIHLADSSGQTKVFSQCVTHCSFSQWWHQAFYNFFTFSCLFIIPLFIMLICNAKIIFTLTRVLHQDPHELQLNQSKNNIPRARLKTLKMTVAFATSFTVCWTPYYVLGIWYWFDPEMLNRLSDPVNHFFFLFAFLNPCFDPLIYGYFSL
Assay: IP-One HTRF assay (inhibition of GnRH-R activation by buserelin)
Format: cell-based
Settings: IP-One HTRF assay with buserelin (at EC80) stimulation; CHO cells stably expressing human GnRH receptor; tested 20 µM to 1 nM; read-out: Potency IC50
Text: By using homogenous time-resolved fluorescence resonance energy transfer (HTRF), the generation of one component of the GnRH-R signalling cascade can be measured. After stimulation of CHO cells stably expressing human GnRH receptor (established by Prof. Thomas Gudermann, currently University of Marburg, Germany; supplied as frozen cell aliquots by Cell Culture Services, Hamburg, Germany) with the EC80 of the GnRH agonist buserelin, Gq protein-coupled receptor signalling cascade is activated resulting in PLC-dependent cleavage of PIP2 to Inositol-1,4,5-triphosphate (IP3) and Diacylglycerol. The second messenger IP3 is degraded intracellularly to myo-inositol. Inhibition of the final degradation step from Inositol-1-phosphate (IP1) to myo-inositol by addition of lithium chloride leads to accumulation of IP1 in the cells. In cell lysates, IP1 can be detected via an antibody-based HTRF detection technology, where IP1 can displace the FRET acceptor IP1-d2 from binding by Terbium-labelled anti-IP1 antibody as donor resulting in a signal decrease. Compounds were tested for their capability of inhibiting GnRH-R activation by buserelin. For all IP-One HTRF® assays reagents of Cisbio Bioassays (IP-One Tb Jumbo kit, #62IPAPEJ; Cisbio Bioassays, Bagnols sur Cèze Cedex, France) were used.
For the assay, frozen cell aliquots were thawed and a cell suspension (3.33x10^6 cells/ml) containing IP1-d2 (dilution 1:40) was prepared and incubated at 37°C. After 1 h 3 µl of the cell suspension were added to 50 nl of a 100-fold concentrated solution of the test compound in DMSO pre-dispensed in a well of a white low-volume 384-well microtiter plate (Greiner Bio-One, Frickenhausen, Germany). The mixture was incubated for 20 min at 22°C to allow for pre-binding of the test compound to the GnRH-R. The receptor signaling cascade was stimulated by addition of 2 µl buserelin or LHRH (at EC50 or EC80) in stimulation buffer (10 mM Hepes pH 7.4, 1 mM CaCl2, 0.5 mM MgCl2, 4.2 mM KCI, 146 mM NaCl, 5.5 mM α-D-Glucose, 0.05% BSA, 125 mM LiCl (final assay concentration 50 mM) in aqua dest.). Plates were incubated for 1 h at 37°C and 5% carbon dioxide before the cells were lysed by adding 3 µl Terbium-labelled anti-IP1 antibody (1:40) diluted in Conjugate & Lysis buffer as supplied with the kit. After an incubation for 1 h at 22°C to enable complete cell lysis and antibody binding to free IP1 or IP1-d2, plates were measured in an HTRF reader, e.g. a RUBYstar, PHERAstar (both BMG Labtechnologies, Offenburg, Germany) or a Viewlux (PerkinElmer LAS, Rodgau-Jügesheim, Germany). From the fluorescence emissions at 665 nm (FRET) and at 620 nm (background signal of Terbium-antibody), the ratio (emission at 665 nm divided by emission at 620 nm) was calculated and the data were normalized (reaction without test compound = 0% inhibition; all other assay components except agonist = 100% inhibition). On the same microtiter plate, compounds were tested at 10 different concentrations in the range of 20 µM to 1 nM (20 µM, 6.7 µM, 2.2 µM, 0.74 µM, 0.25 µM, 82 nM, 27 nM, 9.2 nM, 3.1 nM and 1 nM; dilution series prepared before the assay at the level of the 100-fold conc. stock solutions by serial 1:3 dilutions in 100% DMSO) in duplicate values for each concentration. By using an in-house software, the IC50 values were calculated by a 4 parameter fit. The data reveal that the compounds of the present invention have antagonist activities on the human GnRH receptor. Within the meaning of the present invention the antagonist activity is reflected by the ability of a compound of the invention to antagonize human GnRH receptor stimulation in IP-One HTRF® assay at least three times the standard deviation over the background level.

SMILES	pIC50
CC(C)=CCC1N(S(=O)(=O)c2ccc(F)cc2)c2ccc(C(=O)Nc3cc[nH]n3)cc2C12CCC(O)(C(F)(F)F)CC2 (stereo not shown) [Example 12, 1'-[(4-fluorophenyl)sulfonyl]-4-hydroxy-2'-(3-methylbut-2-en-1-yl)-N-(1H-pyrazol-3-yl)-4-(trifluoromethyl)-1',2'-dihydrospiro[cyclohexane-1,3'-indole]-5'-carboxamide]	5.85
CC(C)=CCC1N(S(=O)(=O)c2ccc(F)cc2)c2ccc(C(=O)Nc3cccc(C)c3)cc2C12CCC(O)(C(F)(F)F)CC2 (stereo not shown) [Example 13, 1'-[(4-fluorophenyl)sulfonyl]-4-hydroxy-2'-(3-methylbut-2-en-1-yl)-N-(3-methylphenyl)-4-(trifluoromethyl)-1',2'-dihydrospiro[cyclohexane-1,3'-indole]-5'-carboxamide]	5.49
CC(C)=CCC1N(S(=O)(=O)c2ccc(F)cc2)c2ccc(C(=O)Nc3cccc(C(=O)O)c3)cc2C12CCC(O)(C(F)(F)F)CC2 (stereo not shown) [Example 14, 3-[({1'-[(4-fluorophenyl)sulfonyl]-4-hydroxy-2'-(3-methylbut-2-en-1-yl)-4-(trifluoromethyl)-1',2'-dihydrospiro[cyclohexane-1,3'-indol]-5'-yl}carbonyl)amino] benzoic acid]	6.19
CC(C)=CCC1N(S(=O)(=O)c2ccc(F)cc2)c2ccc(C(=O)Nc3cccc(S(C)(=O)=O)c3)cc2C12CCC(O)(C(F)(F)F)CC2 (stereo not shown) [Example 15, 1'-[(4-fluorophenyl)sulfonyl]-4-hydroxy-2'-(3-methylbut-2-en-1-yl)-N-[3-(methylsulfonyl)phenyl]-4-(trifluoromethyl)-1',2'-dihydrospiro[cyclohexane-1,3'-indole]-5'-carboxamide]	5.89
CC(C)=CCC1N(S(=O)(=O)c2ccc(F)cc2)c2ccc(C(=O)Nc3cccc(S(N)(=O)=O)c3)cc2C12CCC(O)(C(F)(F)F)CC2 (stereo not shown) [Example 16, 1'-[(4-fluorophenyl)sulfonyl]-4-hydroxy-2'-(3-methylbut-2-en-1-yl)-N-(3-sulfamoylphenyl)-4-(trifluoromethyl)-1',2'-dihydrospiro[cyclohexane-1,3'-indole]-5'-carboxamide]	5.73
CC(C)=CCC1N(S(=O)(=O)c2ccc(F)cc2)c2ccc(C(=O)Nc3ccon3)cc2C12CCC(O)(C(F)(F)F)CC2 (stereo not shown) [Example 17, 1'-[(4-fluorophenyl)sulfonyl]-4-hydroxy-2'-(3-methylbut-2-en-1-yl)-N-(1,2-oxazol-3-yl)-4-(trifluoromethyl)-1',2'-dihydrospiro[cyclohexane-1,3'-indole]-5'-carboxamide]	6.28
CC(C)=CCC1N(S(=O)(=O)c2ccc(F)cc2)c2ccc(C(=O)Nc3cncc(C)c3)cc2C12CCC(O)(C(F)(F)F)CC2 (stereo not shown) [Example 18, 1'-[(4-fluorophenyl)sulfonyl]-4-hydroxy-2'-(3-methylbut-2-en-1-yl)-N-(5-methylpyridin-3-yl)-4-(trifluoromethyl)-1',2'-dihydrospiro[cyclohexane-1,3'-indole]-5'-carboxamide]	5.74
CC(C)=CCC1N(S(=O)(=O)c2ccc(F)cc2)c2ccc(C(=O)Nc3cncc(C(F)(F)F)c3)cc2C12CCC(O)(C(F)(F)F)CC2 (stereo not shown) [Example 19, 1'-[(4-fluorophenyl)sulfonyl]-4-hydroxy-2'-(3-methylbut-2-en-1-yl)-4-(trifluoromethyl)-N-[5-(trifluoromethyl)pyridin-3-yl]-1',2'-dihydrospiro[cyclohexane-1,3'-indole]-5'-carboxamide]	5.03
CC(C)=CCC1N(S(=O)(=O)c2ccc(F)cc2)c2ccc(C(=O)Nc3ncco3)cc2C12CCC(O)(C(F)(F)F)CC2 (stereo not shown) [Example 20, 1'-[(4-fluorophenyl)sulfonyl]-4-hydroxy-2'-(3-methylbut-2-en-1-yl)-N-(1,3-oxazol-2-yl)-4-(trifluoromethyl)-1',2'-dihydrospiro[cyclohexane-1,3'-indole]-5'-carboxamide]	6.18
CC(C)=CCC1N(S(=O)(=O)c2ccc(F)cc2)c2ccc(C(=O)NCC3CCCCC3)cc2C12CCC(O)(C(F)(F)F)CC2 (stereo not shown) [Example 21, N-(cyclohexylmethyl) -1'-[(4-fluorophenyl)sulfonyl]-4-hydroxy-2'-(3-methylbut-2-en-1-yl)-4-(trifluoromethyl)-(trifluoromethyl)-1',2'-dihydrospiro[cyclohexane-1,3'-indole]-5'-carboxamide]	4.88
CC(C)=CCC1N(S(=O)(=O)c2ccc(F)cc2)c2ccc(C(=O)NCc3ccccc3Cl)cc2C12CCC(O)(C(F)(F)F)CC2 (stereo not shown) [Example 22, N-(2-chlorobenzyl)-1'-[(4-fluorophenyl)sulfonyl]-4-hydroxy-2'-(3-methylbut-2-en-1-yl)-4-(trifluoromethyl)-1',2'-dihydrospiro[cyclohexane-1,3'-indole]-5'-carboxamide]	6.13
CC(C)=CCC1N(S(=O)(=O)c2ccc(F)cc2)c2ccc(C(=O)NCc3ncccc3C(F)(F)F)cc2C12CCC(O)(C(F)(F)F)CC2 (stereo not shown) [Example 23, 1'-[(4-fluorophenyl)sulfonyl]-4-hydroxy-2'-(3-methylbut-2-en-1-yl)-4-(trifluoromethyl)-N-{[3-(trifluoromethyl)pyridin-2-yl]methyl}-1',2'-dihydrospiro[cyclohexane-1,3'-indole]-5'-carboxamide]	6.15
Cc1cccc(NC(=O)c2ccc3c(c2)C2(CCC(O)(C(F)(F)F)CC2)C(C2CC2)N3S(=O)(=O)c2ccc(F)cc2)c1 (stereo not shown) [Example 24, 2'-cyclopropyl-1'-[(4-fluorophenyl)sulfonyl]-4-hydroxy-N-(3-methylphenyl)-4-(trifluoromethyl)-1',2'-dihydrospiro[cyclohexane-1,3'-indole]-5'-carboxamide]	6.10
Cc1cncc(NC(=O)c2ccc3c(c2)C2(CCC(O)(C(F)(F)F)CC2)C(C2CC2)N3S(=O)(=O)c2ccc(F)cc2)c1 (stereo not shown) [Example 25, 2'-cyclopropyl-1'-[(4-fluorophenyl)sulfonyl]-4-hydroxy-N-(5-methylpyridin-3-yl)-4-(trifluoromethyl)-1',2'-dihydrospiro[cyclohexane-1,3'-indole]-5'-carboxamide]	6.25
CC1N(S(=O)(=O)c2ccc(F)cc2)c2ccc(C(=O)NCc3ccccc3Cl)cc2C12CCC(O)(C(F)(F)F)CC2 (stereo not shown) [Example 26, N-(2-chlorobenzyl)-1'-[(4-fluorophenyl)sulfonyl]-4-hydroxy-2'-methyl-4-(trifluoromethyl)-1',2'-dihydrospiro[cyclohexane-1,3'-indole]-5'-carboxamide]	6.36
COC(=O)c1cccc(S(=O)(=O)N2c3ccc(C(=O)Nc4ccon4)cc3C3(CCC(O)(C(F)(F)F)CC3)C2C2CC2)c1 (stereo not shown) [Example 27, methyl 3-{[2'-cyclopropyl-4-hydroxy-5'-(1,2-oxazol-3-ylcarbamoyl)-4-(trifluoromethyl)spiro[cyclohexane-1,3'-indol]-1'(2'H)-yl]sulfonyl}benzoate]	5.95
